In US11000033B2, “Ketone or oxime compound, and herbicide” (NISSAN CHEMICAL CORPORATION, priority 2014, dated 2021):

Experiments:
Type in all cases: in vivo
[1] = tested on: Echinochloa oryzacola Vasing.; test: Test Example 1: herbicidal activity, application before weed generation in submerged conditions (symbol A); conditions: application herbicide amount 320 g/ha
In short: (§1)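 In a flooded pot test with alluvial soil, the emulsion-formulated compound was diluted with water to a predetermined amount and applied to the floodwater immediately on the sowing day. Pots were held in a greenhouse at 25–30 °C for 3 weeks before each weed was rated.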

Monochoria vaginalis [2] = test: Test Example 1: herbicidal activity, application before weed generation in submerged conditions (symbol C); conditions: application herbicide amount 320 g/ha
In short: as §1

[3] = tested on: Echinochloa oryzacola Vasing.; test: Test Example 2: herbicidal activity, application during weed generation in submerged conditions (symbol A); conditions: Table 23; application herbicide amount 320 g/ha; grade 0-5 by criteria of Test Example 1
In short: (§2)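 Weeds emerging under flooded conditions were treated with compound formulated as an emulsion and diluted with water to the intended herbicide amount, poured onto the surface of 4 cm standing water. Seeds had been co-sown in alluvial soil; plants grew at 25° C. to 30° C. and were assessed after 3 weeks.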

Scirpus juncoides = test: Test Example 2: herbicidal activity, application during weed generation in submerged conditions (symbol B); conditions: Table 23; application herbicide amount 320 g/ha; grade 0-5 by criteria of Test Example 1
In short: as §2

Monochoria vaginalis [4] = test: Test Example 2: herbicidal activity, application during weed generation in submerged conditions (symbol C); conditions: Table 23; application herbicide amount 320 g/ha; grade 0-5 by criteria of Test Example 1
In short: as §2

Setaria viridis = test: Test Example 4: herbicidal effect by soil treatment (symbol G)
In short: (§3)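 Seeds were sown in sterilized diluvial soil, covered with about 1.5 cm of soil, and the soil surface was sprayed with a water-diluted emulsion of the compound at a predetermined rate. Plants grew in a greenhouse at 25° C. to 30° C.; effects were scored visually 3 weeks after application.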

Abutilon theophrasti = test: Test Example 4: herbicidal effect by soil treatment (symbol M)
In short: as §3

Galium spurium [5] = test: Test Example 4: herbicidal effect by soil treatment (symbol Q)
In short: as §3

corn = test: Test Example 4: effect on crop by soil treatment (symbol c)
In short: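 Crop seed is sown in spots together with several weed species in a box of sterilized diluvial soil. It is covered by about 1.5 cm of soil and kept in a greenhouse held between 25° C. and 30° C.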

wheat = test: Test Example 4: effect on crop by soil treatment (symbol e)
In short: (§4)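 Plants are raised in a greenhouse (25° C. to 30° C.) from spot-sown seed, which sits under about 1.5 cm of sterilized diluvial soil in a box shared with weed species.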

beet [6] = test: Test Example 4: effect on crop by soil treatment (symbol f)
In short: as §4

Alopecurus myosuroides = test: Test Example 5: herbicidal effect by foliage application, plastic box (symbol J); conditions: 320 g/ha, 3 weeks after application
In short: (§5)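 Emulsion formulation, diluted with water to the intended rate, was applied uniformly to leaves by small sprayer. Recipients were 14-day greenhouse-grown seedlings (25° C. to 30° C.). Assessment followed at 3 weeks.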

Lolium multiflorum Lam. = test: Test Example 5: herbicidal effect by foliage application, plastic box (symbol K); conditions: 320 g/ha, 3 weeks after application
In short: as §5

Amaranthus retroflexus = test: Test Example 5: herbicidal effect by foliage application, plastic box (symbol N); conditions: 320 g/ha, 3 weeks after application
In short: as §5

Galium spurium [7] = test: Test Example 5: herbicidal effect by foliage application, plastic box (symbol Q); conditions: 320 g/ha, 3 weeks after application
In short: as §5

rice plant = test: Test Example 5: effect on crop by foliage application, plastic box (symbol b); conditions: 320 g/ha, 3 weeks after application
In short: (§6)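 Crop seed is sown alongside grass and broadleaf weed species in spots in sterilized diluvial soil, then covered to a depth of about 1.5 cm. Plants grow in a greenhouse kept at 25° C. to 30° C.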

beet [8] = test: Test Example 5: effect on crop by foliage application, plastic box (symbol f); conditions: 320 g/ha, 3 weeks after application
In short: as §6

[9] = application herbicide amount 320 g/ha

Row | SMILES | Herbicidal effect grade, A: Echinochloa oryzacola Vasing. [1] | Herbicidal effect grade, C: Monochoria vaginalis (Monochoria vaginalis [2]) | Herbicidal effect grade, A: Echinochloa oryzacola Vasing. [3] | Herbicidal effect grade, B: Scirpus juncoides (Scirpus juncoides) | Herbicidal effect grade, C: Monochoria vaginalis (Monochoria vaginalis [4]) | A (Echinochloa oryzacola Vasing.) herbicidal effect grade [1] | C (Monochoria vaginalis) herbicidal effect grade (Monochoria vaginalis [2]) | J: Alopecurus myosuroides, herbicidal effect grade (Alopecurus myosuroides) | K: Lolium multiflorum Lam., herbicidal effect grade (Lolium multiflorum Lam.) | N: Amaranthus retroflexus, herbicidal effect grade (Amaranthus retroflexus) | Q: Galium spurium, herbicidal effect grade (Galium spurium [7]) | b: directly sowed rice plant, effect on crop grade (rice plant) | f: beet, effect on crop grade (beet [8]) | also measured
1 | C=C(C)CN(CC)C(=O)OC1=C(c2c(C)cc(C)cc2C)C(=O)C(CC(C)=NOC)C1 (centres unmarked) [1-130] | 3 (Herbicidal ratio of 40% or higher and lower than 70%) | 0 (Herbicidal ratio of 5% or lower (almost no effect)) | 1 (Herbicidal ratio of 5% or higher and lower than 20%) | 0 (Herbicidal ratio of 5% or lower (almost no effect)) | 0 (Herbicidal ratio of 5% or lower (almost no effect)) | – | – | – | – | – | – | – | – | G: Setaria viridis, herbicidal effect grade (Setaria viridis; 320 g/ha): 0 (Herbicidal ratio of 5% or lower (almost no effect)); M: Abutilon theophrasti, herbicidal effect grade (Abutilon theophrasti; 320 g/ha): 0 (Herbicidal ratio of 5% or lower (almost no effect)); Q: Galium spurium, herbicidal effect grade (Galium spurium [5]; 320 g/ha): 0 (Herbicidal ratio of 5% or lower (almost no effect)); c: corn, effect grade on crop (corn; 320 g/ha): 0 (Herbicidal ratio of 5% or lower (almost no effect)); e: wheat, effect grade on crop (wheat; 320 g/ha): 0 (Herbicidal ratio of 5% or lower (almost no effect)); f: beet, effect grade on crop (beet [6]; 320 g/ha): 0 (Herbicidal ratio of 5% or lower (almost no effect)); J: Alopecurus myosuroides, herbicidal effect (criteria 0-5) (Alopecurus myosuroides): 5 (Herbicidal ratio of 90% or more (almost completely withered)); K: Lolium multiflorum Lam., herbicidal effect (criteria 0-5) (Lolium multiflorum Lam.): 5 (Herbicidal ratio of 90% or more (almost completely withered)); N: Amaranthus retroflexus, herbicidal effect (criteria 0-5) (Amaranthus retroflexus): 0 (Herbicidal ratio of 5% or lower (almost no effect)); Q: Galium spurium, herbicidal effect (criteria 0-5) (Galium spurium [7]): 0 (Herbicidal ratio of 5% or lower (almost no effect)); b: directly sowed rice plant, effect on crop (criteria 0-5) (rice plant): 5 (Herbicidal ratio of 90% or more (almost completely withered)); f: beet, effect on crop (criteria 0-5) (beet [8]): 0 (Herbicidal ratio of 5% or lower (almost no effect))
2 | CON=C(CC1CC(O)=C(c2c(C)cc(-c3ccccc3)cc2C)C1=O)C1CC1 (mixture of isomers) [9-028] | – | – | 5 (Herbicidal ratio of 90% or more (almost completely withered)) | 4 (Herbicidal ratio of 70% or higher and lower than 90%) | 4 (Herbicidal ratio of 70% or higher and lower than 90%) | 5 (Herbicidal ratio of 90% or more (almost completely withered)) | 5 (Herbicidal ratio of 90% or more (almost completely withered)) | 5 (Herbicidal ratio of 90% or more (almost completely withered)) | 5 (Herbicidal ratio of 90% or more (almost completely withered)) | 1 (Herbicidal ratio of 5% or higher and lower than 20%) | 4 (Herbicidal ratio of 70% or higher and lower than 90%) | 5 (Herbicidal ratio of 90% or more (almost completely withered)) | 3 (Herbicidal ratio of 40% or higher and lower than 70%) | Herbicidal effect grade, G: Setaria viridis (Setaria viridis; [9]): 5 (Herbicidal ratio of 90% or more (almost completely withered)); Herbicidal effect grade, M: Abutilon theophrasti (Abutilon theophrasti; [9]): 0 (Herbicidal ratio of 5% or lower (almost no effect)); Herbicidal effect grade, Q: Galium spurium (Galium spurium [5]; [9]): 0 (Herbicidal ratio of 5% or lower (almost no effect)); Effect on crop grade, c: corn (corn; [9]): 1 (Herbicidal ratio of 5% or higher and lower than 20%); Effect on crop grade, e: wheat (wheat; [9]): 3 (Herbicidal ratio of 40% or higher and lower than 70%); Effect on crop grade, f: beet (beet [6]; [9]): 0 (Herbicidal ratio of 5% or lower (almost no effect))
3 | CON=C(C)CC1CC(OS(C)(=O)=O)=C(c2c(C)cc(C)cc2C)C1=O (centres unmarked) [1-006] | 5 (Herbicidal ratio of 90% or more (almost completely withered)) | 3 (Herbicidal ratio of 40% or higher and lower than 70%) | 5 (Herbicidal ratio of 90% or more (almost completely withered)) | 3 (Herbicidal ratio of 40% or higher and lower than 70%) | 3 (Herbicidal ratio of 40% or higher and lower than 70%) | – | – | 5 (Herbicidal ratio of 90% or more (almost completely withered)) | 5 (Herbicidal ratio of 90% or more (almost completely withered)) | 3 (Herbicidal ratio of 40% or higher and lower than 70%) | 0 (Herbicidal ratio of 5% or lower (almost no effect)) | 5 (Herbicidal ratio of 90% or more (almost completely withered)) | 0 (Herbicidal ratio of 5% or lower (almost no effect)) | G (Setaria viridis) herbicidal effect grade (Setaria viridis; [9]): 4 (Herbicidal ratio of 70% or higher and lower than 90%); M (Abutilon theophrasti) herbicidal effect grade (Abutilon theophrasti; [9]): 4 (Herbicidal ratio of 70% or higher and lower than 90%); Q (Galium spurium) herbicidal effect grade (Galium spurium [5]; [9]): 0 (Herbicidal ratio of 5% or lower (almost no effect)); c (corn) effect on crop grade (corn; [9]): 1 (Herbicidal ratio of 5% or higher and lower than 20%); e (wheat) effect on crop grade (wheat; [9]): 0 (Herbicidal ratio of 5% or lower (almost no effect)); f (beet) effect on crop grade (beet [6]; [9]): 0 (Herbicidal ratio of 5% or lower (almost no effect))
4 | CON=C(CC1CC(O)=C(c2c(C)cc(C)cc2OC)C1=O)C1CC1 (mixture of isomers) [13-002] | – | – | 5 (Herbicidal ratio of 90% or more (almost completely withered)) | 5 (Herbicidal ratio of 90% or more (almost completely withered)) | 2 (Herbicidal ratio of 20% or higher and lower than 40%) | 5 (Herbicidal ratio of 90% or more (almost completely withered)) | 0 (Herbicidal ratio of 5% or lower (almost no effect)) | 5 (Herbicidal ratio of 90% or more (almost completely withered)) | 5 (Herbicidal ratio of 90% or more (almost completely withered)) | 0 (Herbicidal ratio of 5% or lower (almost no effect)) | 4 (Herbicidal ratio of 70% or higher and lower than 90%) | 5 (Herbicidal ratio of 90% or more (almost completely withered)) | 3 (Herbicidal ratio of 40% or higher and lower than 70%) | G: Setaria viridis, herbicidal effect grade (Setaria viridis; [9]): 5 (Herbicidal ratio of 90% or more (almost completely withered)); M: Abutilon theophrasti, herbicidal effect grade (Abutilon theophrasti; [9]): 0 (Herbicidal ratio of 5% or lower (almost no effect)); Q: Galium spurium, herbicidal effect grade (Galium spurium [5]; [9]): 0 (Herbicidal ratio of 5% or lower (almost no effect)); c: corn, effect on crop grade (corn; [9]): 5 (Herbicidal ratio of 90% or more (almost completely withered)); e: wheat, effect on crop grade (wheat; [9]): 3 (Herbicidal ratio of 40% or higher and lower than 70%); f: beet, effect on crop grade (beet [6]; [9]): 0 (Herbicidal ratio of 5% or lower (almost no effect))
